Where a SMILES comes first, the peptide text is derived from it. [ ]: non-standard residue; d: D form. The star is where a group is joined. X1 = N[C@@H](CCCCNC(=O)CC[C@H](NC(=O)CCCCCCCCCCCCCCCCCCC(=O)O)C(=O)O)C(=O)NCCCC[C@H](N)C(=O)N[C@@H](CCCCNC(=O)C*)C(=O)O; X6 = N[C@@H](CCCCNC(=O)CC[C@H](NC(=O)CCCCCCCCCCCCCCCCC(=O)O)C(=O)O)C(=O)NCCCC[C@H](N)C(=O)N[C@@H](CCCCNC(=O)C*)C(=O)O; X3 = O=C(O)CCCCCCCCCCCCCCCCC(=O)NCCOCCOCC(=O)N[C@@H](CCC(=O)N[C@@H](CCC(=O)N[C@@H](CCCCNC(=O)C*)C(=O)O)C(=O)O)C(=O)O; X5 = O=C(O)CCCCCCCCCCCCCCCCCCC(=O)N[C@@H](CCC(=O)NCCOCCOCC(=O)NCCOCCOCC(=O)N[C@@H](CCCCNC(=O)C*)C(=O)O)C(=O)O; Aib = CC(C)(N)C(=O)O
Tests used:
[1] = target: Glucagon-like peptide 1 receptor (Homo sapiens, UniProt P43220); assay: Agonist activity at human GLP-1R expressed in CHO cells assessed as increase in cAMP production incubated for 30 mins by Eu-cAMP tracer based microplate reader analysis; format: functional, cell-based
Chain of Glucagon-like peptide 1 receptor (P43220 whole entry): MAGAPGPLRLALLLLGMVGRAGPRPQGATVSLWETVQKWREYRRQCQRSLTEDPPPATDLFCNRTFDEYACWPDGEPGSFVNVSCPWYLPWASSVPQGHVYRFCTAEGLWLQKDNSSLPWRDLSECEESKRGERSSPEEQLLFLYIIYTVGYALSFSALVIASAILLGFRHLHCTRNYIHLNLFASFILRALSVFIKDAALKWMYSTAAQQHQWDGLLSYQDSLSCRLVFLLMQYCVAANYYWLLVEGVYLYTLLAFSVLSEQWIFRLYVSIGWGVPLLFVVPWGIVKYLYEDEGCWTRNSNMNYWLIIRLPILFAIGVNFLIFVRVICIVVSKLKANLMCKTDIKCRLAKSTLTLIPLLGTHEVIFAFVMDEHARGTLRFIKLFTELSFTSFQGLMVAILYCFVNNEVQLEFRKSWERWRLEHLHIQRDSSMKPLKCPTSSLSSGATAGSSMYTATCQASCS

[2] = target: T1, Gastric inhibitory polypeptide receptor (Homo sapiens, UniProt P48546); assay: Agonist activity at human GIPR expressed in CHO cells assessed as increase in cAMP production incubated for 30 mins by Eu-cAMP tracer based microplate reader analysis; format: functional, cell-based
T1 sequence (P48546 whole entry): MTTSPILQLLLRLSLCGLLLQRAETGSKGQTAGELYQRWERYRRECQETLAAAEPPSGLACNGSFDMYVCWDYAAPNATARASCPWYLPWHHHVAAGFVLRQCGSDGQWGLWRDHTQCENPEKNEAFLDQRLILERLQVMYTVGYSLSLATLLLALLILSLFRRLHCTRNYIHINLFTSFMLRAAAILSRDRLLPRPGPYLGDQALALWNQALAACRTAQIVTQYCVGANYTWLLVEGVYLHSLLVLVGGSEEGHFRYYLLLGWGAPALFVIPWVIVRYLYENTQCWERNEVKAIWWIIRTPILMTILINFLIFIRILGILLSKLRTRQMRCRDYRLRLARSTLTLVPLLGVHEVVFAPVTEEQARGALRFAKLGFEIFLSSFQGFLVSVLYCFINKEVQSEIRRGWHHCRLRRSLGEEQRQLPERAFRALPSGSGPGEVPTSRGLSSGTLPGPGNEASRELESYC

Row | Structure (SMILES) | EC50 [1] | EC50 [2]
1 | CC(C)C[C@H](NC(=O)[C@H](CC(C)C)NC(=O)[C@H](Cc1c[nH]c2ccccc12)NC(=O)[C@H](CCC(N)=O)NC(=O)[C@@H](NC(=O)[C@H](Cc1ccccc1)NC(=O)[C@H](CC(C)C)NC(=O)[C@H](CSCC(=O)NCCCC[C@H](NC(=O)[C@@H](N)CCCCNC(=O)[C@@H](N)CCCCNC(=O)CC[C@H](NC(=O)CCCCCCCCCCCCCCCCC(=O)O)C(=O)O)C(=O)O)NC(=O)[C@H](C)NC(=O)[C@H](C)NC(=O)[C@H](CCC(N)=O)NC(=O)[C@H](CCCCN)NC(=O)[C@H](CCC(=O)O)NC(=O)[C@H](CC(C)C)NC(=O)[C@H](Cc1ccc(O)cc1)NC(=O)[C@H](Cc1ccc(O)cc1)NC(=O)[C@H](CO)NC(=O)[C@H](Cc1ccc(O)cc1)NC(=O)[C@H](CC(=O)O)NC(=O)[C@H](CO)NC(=O)[C@@H](NC(=O)[C@H](Cc1ccccc1)NC(=O)[C@@H](NC(=O)CNC(=O)[C@H](CCC(=O)O)NC(=O)C(C)(C)NC(=O)[C@@H](N)Cc1ccc(O)cc1)[C@@H](C)O)[C@@H](C)O)C(C)C)C(=O)N[C@@H](C)C(=O)NCC(=O)NCC(=O)N1CCC[C@H]1C(=O)N[C@@H](CO)C(=O)N[C@@H](CO)C(=O)NCC(=O)N[C@@H](C)C(=O)N1CCC[C@H]1C(=O)N1CCC[C@H]1C(=O)N1CCC[C@H]1C(=O)N[C@@H](CO)C(N)=O (H-Y[Aib]EGTFTSDYSYYLEKQAAC(X6)LFVQWLLAGGPSSGAPPPS-NH2) | 1.26 nM | 19.2 nM
2 | CC(C)C[C@H](NC(=O)[C@H](CC(C)C)NC(=O)[C@H](Cc1c[nH]c2ccccc12)NC(=O)[C@H](CCC(N)=O)NC(=O)[C@@H](NC(=O)[C@H](Cc1ccccc1)NC(=O)[C@H](CC(C)C)NC(=O)[C@H](CS)NC(=O)[C@H](C)NC(=O)[C@H](C)NC(=O)[C@H](CCC(N)=O)NC(=O)[C@H](CCCCN)NC(=O)[C@H](CCC(=O)O)NC(=O)[C@H](CC(C)C)NC(=O)[C@H](Cc1ccc(O)cc1)NC(=O)[C@H](Cc1ccc(O)cc1)NC(=O)[C@H](CO)NC(=O)[C@H](Cc1ccc(O)cc1)NC(=O)[C@H](CC(=O)O)NC(=O)[C@H](CO)NC(=O)[C@@H](NC(=O)[C@H](Cc1ccccc1)NC(=O)[C@@H](NC(=O)CNC(=O)[C@H](CCC(=O)O)NC(=O)C(C)(C)NC(=O)[C@@H](N)Cc1ccc(O)cc1)[C@@H](C)O)[C@@H](C)O)C(C)C)C(=O)N[C@@H](C)C(=O)NCC(=O)NCC(=O)N1CCC[C@H]1C(=O)N[C@@H](CO)C(=O)N[C@@H](CO)C(=O)NCC(=O)N[C@@H](C)C(=O)N1CCC[C@H]1C(=O)N1CCC[C@H]1C(=O)N1CCC[C@H]1C(=O)N[C@@H](CO)C(N)=O (H-Y[Aib]EGTFTSDYSYYLEKQAACLFVQWLLAGGPSSGAPPPS-NH2) | 0.29 nM | 0.6 nM
3 | CC(C)C[C@H](NC(=O)[C@H](CC(C)C)NC(=O)[C@H](Cc1c[nH]c2ccccc12)NC(=O)[C@H](CCC(N)=O)NC(=O)[C@@H](NC(=O)[C@H](Cc1ccccc1)NC(=O)[C@H](CS)NC(=O)[C@H](CCCCN)NC(=O)[C@H](C)NC(=O)[C@H](C)NC(=O)[C@H](CCC(N)=O)NC(=O)[C@H](CCCCN)NC(=O)[C@H](CCC(=O)O)NC(=O)[C@H](CC(C)C)NC(=O)[C@H](Cc1ccc(O)cc1)NC(=O)[C@H](Cc1ccc(O)cc1)NC(=O)[C@H](CO)NC(=O)[C@H](Cc1ccc(O)cc1)NC(=O)[C@H](CC(=O)O)NC(=O)[C@H](CO)NC(=O)[C@@H](NC(=O)[C@H](Cc1ccccc1)NC(=O)[C@@H](NC(=O)CNC(=O)[C@H](CCC(=O)O)NC(=O)C(C)(C)NC(=O)[C@@H](N)Cc1ccc(O)cc1)[C@@H](C)O)[C@@H](C)O)C(C)C)C(=O)N[C@@H](C)C(=O)NCC(=O)NCC(=O)N1CCC[C@H]1C(=O)N[C@@H](CO)C(=O)N[C@@H](CO)C(=O)NCC(=O)N[C@@H](C)C(=O)N1CCC[C@H]1C(=O)N1CCC[C@H]1C(=O)N1CCC[C@H]1C(=O)N[C@@H](CO)C(N)=O (H-Y[Aib]EGTFTSDYSYYLEKQAAKCFVQWLLAGGPSSGAPPPS-NH2) | 6.51 nM | 14.8 nM
4 | CC(C)C[C@H](NC(=O)[C@H](CC(C)C)NC(=O)[C@H](Cc1c[nH]c2ccccc12)NC(=O)[C@H](CSCC(=O)NCCCC[C@H](NC(=O)[C@@H](N)CCCCNC(=O)[C@@H](N)CCCCNC(=O)CC[C@H](NC(=O)CCCCCCCCCCCCCCCCCCC(=O)O)C(=O)O)C(=O)O)NC(=O)[C@@H](NC(=O)[C@H](Cc1ccccc1)NC(=O)[C@H](CC(C)C)NC(=O)[C@H](CCCCN)NC(=O)[C@H](C)NC(=O)[C@H](C)NC(=O)[C@H](CCC(N)=O)NC(=O)[C@H](CCCCN)NC(=O)[C@H](CCC(=O)O)NC(=O)[C@H](CC(C)C)NC(=O)[C@H](Cc1ccc(O)cc1)NC(=O)[C@H](Cc1ccc(O)cc1)NC(=O)[C@H](CO)NC(=O)[C@H](Cc1ccc(O)cc1)NC(=O)[C@H](CC(=O)O)NC(=O)[C@H](CO)NC(=O)[C@@H](NC(=O)[C@H](Cc1ccccc1)NC(=O)[C@@H](NC(=O)CNC(=O)[C@H](CCC(=O)O)NC(=O)C(C)(C)NC(=O)[C@@H](N)Cc1ccc(O)cc1)[C@@H](C)O)[C@@H](C)O)C(C)C)C(=O)N[C@@H](C)C(=O)NCC(=O)NCC(=O)N1CCC[C@H]1C(=O)N[C@@H](CO)C(=O)N[C@@H](CO)C(=O)NCC(=O)N[C@@H](C)C(=O)N1CCC[C@H]1C(=O)N1CCC[C@H]1C(=O)N1CCC[C@H]1C(=O)N[C@@H](CO)C(N)=O (H-Y[Aib]EGTFTSDYSYYLEKQAAKLFVC(X1)WLLAGGPSSGAPPPS-NH2) | 0.29 nM | 7.2 nM
5 | CC(C)C[C@H](NC(=O)[C@H](CC(C)C)NC(=O)[C@H](Cc1c[nH]c2ccccc12)NC(=O)[C@H](CSCC(=O)NCCCC[C@H](NC(=O)CC[C@H](NC(=O)CC[C@H](NC(=O)COCCOCCNC(=O)CCCCCCCCCCCCCCCCC(=O)O)C(=O)O)C(=O)O)C(=O)O)NC(=O)[C@@H](NC(=O)[C@H](Cc1ccccc1)NC(=O)[C@H](CC(C)C)NC(=O)[C@H](CCCCN)NC(=O)[C@H](C)NC(=O)[C@H](C)NC(=O)[C@H](CCC(N)=O)NC(=O)[C@H](CCCCN)NC(=O)[C@H](CCC(=O)O)NC(=O)[C@H](CC(C)C)NC(=O)[C@H](Cc1ccc(O)cc1)NC(=O)[C@H](Cc1ccc(O)cc1)NC(=O)[C@H](CO)NC(=O)[C@H](Cc1ccc(O)cc1)NC(=O)[C@H](CC(=O)O)NC(=O)[C@H](CO)NC(=O)[C@@H](NC(=O)[C@H](Cc1ccccc1)NC(=O)[C@@H](NC(=O)CNC(=O)[C@H](CCC(=O)O)NC(=O)C(C)(C)NC(=O)[C@@H](N)Cc1ccc(O)cc1)[C@@H](C)O)[C@@H](C)O)C(C)C)C(=O)N[C@@H](C)C(=O)NCC(=O)NCC(=O)N1CCC[C@H]1C(=O)N[C@@H](CO)C(=O)N[C@@H](CO)C(=O)NCC(=O)N[C@@H](C)C(=O)N1CCC[C@H]1C(=O)N1CCC[C@H]1C(=O)N1CCC[C@H]1C(=O)N[C@@H](CO)C(N)=O (H-Y[Aib]EGTFTSDYSYYLEKQAAKLFVC(X3)WLLAGGPSSGAPPPS-NH2) | 0.29 nM | 0.46 nM
6 | CC(C)C[C@H](NC(=O)[C@H](CC(C)C)NC(=O)[C@H](Cc1c[nH]c2ccccc12)NC(=O)[C@H](CSCC(=O)NCCCC[C@H](NC(=O)COCCOCCNC(=O)COCCOCCNC(=O)CC[C@H](NC(=O)CCCCCCCCCCCCCCCCCCC(=O)O)C(=O)O)C(=O)O)NC(=O)[C@@H](NC(=O)[C@H](Cc1ccccc1)NC(=O)[C@H](CC(C)C)NC(=O)[C@H](CCCCN)NC(=O)[C@H](C)NC(=O)[C@H](C)NC(=O)[C@H](CCC(N)=O)NC(=O)[C@H](CCCCN)NC(=O)[C@H](CCC(=O)O)NC(=O)[C@H](CC(C)C)NC(=O)[C@H](Cc1ccc(O)cc1)NC(=O)[C@H](Cc1ccc(O)cc1)NC(=O)[C@H](CO)NC(=O)[C@H](Cc1ccc(O)cc1)NC(=O)[C@H](CC(=O)O)NC(=O)[C@H](CO)NC(=O)[C@@H](NC(=O)[C@H](Cc1ccccc1)NC(=O)[C@@H](NC(=O)CNC(=O)[C@H](CCC(=O)O)NC(=O)C(C)(C)NC(=O)[C@@H](N)Cc1ccc(O)cc1)[C@@H](C)O)[C@@H](C)O)C(C)C)C(=O)N[C@@H](C)C(=O)NCC(=O)NCC(=O)N1CCC[C@H]1C(=O)N[C@@H](CO)C(=O)N[C@@H](CO)C(=O)NCC(=O)N[C@@H](C)C(=O)N1CCC[C@H]1C(=O)N1CCC[C@H]1C(=O)N1CCC[C@H]1C(=O)N[C@@H](CO)C(N)=O (H-Y[Aib]EGTFTSDYSYYLEKQAAKLFVC(X5)WLLAGGPSSGAPPPS-NH2) | 0.89 nM | 3.73 nM
7 | CC(C)C[C@H](NC(=O)[C@H](CC(C)C)NC(=O)[C@H](Cc1c[nH]c2ccccc12)NC(=O)[C@H](CSCC(=O)NCCCC[C@H](NC(=O)[C@@H](N)CCCCNC(=O)[C@@H](N)CCCCNC(=O)CC[C@H](NC(=O)CCCCCCCCCCCCCCCCC(=O)O)C(=O)O)C(=O)O)NC(=O)[C@@H](NC(=O)[C@H](Cc1ccccc1)NC(=O)[C@H](CC(C)C)NC(=O)[C@H](CCCCN)NC(=O)[C@H](C)NC(=O)[C@H](C)NC(=O)[C@H](CCC(N)=O)NC(=O)[C@H](CCCCN)NC(=O)[C@H](CCC(=O)O)NC(=O)[C@H](CC(C)C)NC(=O)[C@H](Cc1ccc(O)cc1)NC(=O)[C@H](Cc1ccc(O)cc1)NC(=O)[C@H](CO)NC(=O)[C@H](Cc1ccc(O)cc1)NC(=O)[C@H](CC(=O)O)NC(=O)[C@H](CO)NC(=O)[C@@H](NC(=O)[C@H](Cc1ccccc1)NC(=O)[C@@H](NC(=O)CNC(=O)[C@H](CCC(=O)O)NC(=O)C(C)(C)NC(=O)[C@@H](N)Cc1ccc(O)cc1)[C@@H](C)O)[C@@H](C)O)C(C)C)C(=O)N[C@@H](C)C(=O)NCC(=O)NCC(=O)N1CCC[C@H]1C(=O)N[C@@H](CO)C(=O)N[C@@H](CO)C(=O)NCC(=O)N[C@@H](C)C(=O)N1CCC[C@H]1C(=O)N1CCC[C@H]1C(=O)N1CCC[C@H]1C(=O)N[C@@H](CO)C(N)=O (H-Y[Aib]EGTFTSDYSYYLEKQAAKLFVC(X6)WLLAGGPSSGAPPPS-NH2) | 0.4 nM | 2.76 nM

— ChEMBL document CHEMBL5576038, “Design of a novel long-acting dual GLP-1/GIP receptor agonist” (Bioorg Med Chem, 2024)
